row,melting point [°C],Compound
1,120 to 122,"Cc1c(Cl)c2ccccc2n1S(=O)(=O)c1ncn(S(=O)(=O)N(C)C)n1 [1-33(a), 1-(N,N-dimethylsulfamoyl)-3-(2-methyl-3-chloroindol-1-yl)sulfonyl-1,2,4-triazole]"
2,121 to 122,"CN(C)S(=O)(=O)n1cnc(C(=O)c2ccc(C(F)(F)F)cc2)n1 [11-19(a), 1-dimethylsulfamoyl-3-(4-trifluoromethylbenzoyl)-1,2,4-triazole]"
3,125 to 128,"Cc1c(Cl)c(-c2ccccc2)nn1S(=O)(=O)c1ncn(S(=O)(=O)N(C)C)n1 [8-11(a), 1-(N,N-dimethylsulfamoyl)-3-(3-phenyl-4-chloro-5-methylpyrazol-1-yl)sulfonyl-1,2,4-triazole]"
4,164 to 165,"CN(C)S(=O)(=O)n1cnc(S(=O)(=O)n2nc(Cl)c3ccccc32)n1 [7-5(a), 1-(N,N-dimethylsulfamoyl)-3-(3-chloroindazol-1-yl)sulfonyl-1,2,4-triazole]"
